In US20230146455A1, “TREATMENT OF INFLAMMATORY DISEASES WITH PEPTIDES AND PHARMACEUTICAL COMPOSITIONS” (Yuyu Pharma, Inc., priority 2020, published 2023):
Where “and” joins values, the source holds several entries; their conditions need not be identical. Equal entries are not always repeated. Where a SMILES comes first, the peptide text is derived from it. [ ]: non-standard residue; d: D form. Hyp = O=C(O)[C@@H]1C[C@@H](O)CN1

How the values were obtained:
MMP-9 = test: Example 9 Luminex, LPS hPBMCs: MMP-9; assay type: cell-based, human
Experimental: (§1) Treatment Human PBMCs were pretreated with YY-101, YDE-011 and YDE-043 or reference compound; Xiidra® at various concentration (ranging from 1 nM to 100 uM) for 2 h before stimulation. An equal volume of 0.5% DMSO was used as a vehicle control. Then, the cells were treated with LPS at 5 ug/ml. The supernatants from treated cells were harvested at 24 h and placed in a 96 well for Luminex cytokine & chemokine profiling using a Luminex 200 multiplex assay (Luminex; R&D system, USA).
(§2) The main study arm with triplicate wells per group in a 24-well plate: • 1. Blank • 2. PBMC: 0.5% DMSO • 3. PBMC+LPS (5 ug/ml) • 4. PBMC+YY-101 100 uM • 5. PBMC+YY-101 10 uM • 6. PBMC+YY-101 1 uM • 7. PBMC+YY-101 0.1 uM • 8. PBMC+YY-101 0.01 uM • 9. PBMC+LPS (5 ug/ml)+Xiidra®100 uM • 10. PBMC+LPS (5 ug/ml)+Xiidra® 10 uM • 11. PBMC+LPS (5 ug/ml)+Xiidra® 1 uM • 12. PBMC+LPS (5 ug/ml)+Xiidra®0.1 uM • 13. PBMC+LPS (5 ug/ml)+Xiidra®0.01 uM • 14. PBMC+LPS (5 ug/ml)+Xiidra®0.001 uM • 15. PBMC+LPS (5 ug/ml)+YY-101 100 uM • 16. PBMC+LPS (5 ug/ml)+YY-101 10 uM • 17. PBMC+LPS (5 ug/ml)+YY-101 1 uM • 18. PBMC+LPS (5 ug/ml)+YY-101 0.1 uM • 19. PBMC+LPS (5 ug/ml)+YY-101 0.01 uM • 20. PBMC+LPS (5 ug/ml)+YY-101 0.001 uM • 21. PBMC+LPS (5 ug/ml)+YDE-011 100 uM • 22. PBMC+LPS (5 ug/ml)+YDE-011 10 uM • 23. PBMC+LPS (5 ug/ml)+YDE-011 1 uM • 24. PBMC+LPS (5 ug/ml)+YDE-011 0.1 uM • 25. PBMC+LPS (5 ug/ml)+YDE-011 0.01 uM • 26. PBMC+LPS (5 ug/ml)+YDE-011 0.001 uM • 27. PBMC+LPS (5 ug/ml)+YDE-043 100 uM • 28. PBMC+LPS (5 ug/ml)+YDE-043 10 uM • 29. PBMC+LPS (5 ug/ml)+YDE-043 1 uM • 30. PBMC+LPS (5 ug/ml)+YDE-043 0.1 uM • 31. PBMC+LPS (5 ug/ml)+YDE-043 0.01 uM • 32. PBMC+LPS (5 ug/ml)+YDE-043 0.001 uM
(§3) Multiplex assay was used to measure 30 cytokines and chemokines. The 1:2, 1:10 and 1:200 diluted cell supernatant and serial dilution of the standard were dispensed into a 96 well plate at 50 ul/well. Then, the pre-mixed cocktail of antibody-coated magnetic beads was dispensed at 50 ul/well and incubated at room temperature for 2 h in a horizontal orbital microplate shaker at 800±500 rpm. The beads were washed using a magnetic device to prevent loss. The biotin-antibody was dispensed in 50 ul of each well and incubated at room temperature for 1 h in a shaker at 800±500 rpm. After washing, streptavidin-PE was added at 50 ul/well and incubated at room temperature for 30 min in a shaker under the same conditions. Finally, after washing, wash buffer (100 ul/well) was added to the plate and incubated in a shaker for 2 min. The Luminex™ 200 setting were set according to the manufacturer's protocol. The data was calculated with a standard five-parameter logistic nonlinear regression analysis of the data (xPonent software 4.2, USA). The levels of cytokine/chemokine are normalized to the live cell counts (1×10^5 cells/mL) and presented as concentrations per mL (pg/mL or ng/mL).

IL-1 beta/IL-1F2 = test: Example 9 Luminex, LPS hPBMCs: IL-1 beta/IL-1F2; assay type: cell-based, human
Experimental: as §1, §2, §3

[1] = PBMC + 0.01 uM, no LPS, single replicates
[2] = PBMC + 0.1 uM, no LPS, single replicates
[3] = PBMC + 1 uM, no LPS, single replicates
[4] = PBMC + 10 uM, no LPS, single replicates
[5] = PBMC + 100 uM, no LPS, single replicates
[6] = PBMC + LPS(5 ug/ml) + 0.001 uM, Mean
[7] = PBMC + LPS(5 ug/ml) + 0.001 uM, single replicates
[8] = PBMC + LPS(5 ug/ml) + 0.01 uM, Mean
[9] = PBMC + LPS(5 ug/ml) + 0.01 uM, single replicates
[10] = PBMC + LPS(5 ug/ml) + 0.1 uM, Mean
[11] = PBMC + LPS(5 ug/ml) + 0.1 uM, single replicates
[12] = PBMC + LPS(5 ug/ml) + 1 uM, Mean
[13] = PBMC + LPS(5 ug/ml) + 1 uM, single replicates
[14] = PBMC + LPS(5 ug/ml) + 10 uM, Mean
[15] = PBMC + LPS(5 ug/ml) + 10 uM, single replicates
[16] = PBMC + LPS(5 ug/ml) + 100 uM, Mean
[17] = PBMC + LPS(5 ug/ml) + 100 uM, single replicates
[18] = PBMC + LPS(5 ug/ml) + test article 0.001 uM, Mean
[19] = PBMC + LPS(5 ug/ml) + test article 0.001 uM, single replicates
[20] = PBMC + LPS(5 ug/ml) + test article 0.01 uM, Mean

CC(C)C[C@H](NC(=O)CNC(=O)[C@H](CC(=O)O)NC(=O)[C@H](CCC(N)=O)NC(=O)CNC(=O)[C@@H]1C[C@@H](O)CN1)C(=O)N[C@@H](C)C(=O)NCC(=O)N1CCC[C@H]1C(=O)N[C@@H](CCCCN)C(=O)O [YY-101] (H-[Hyp]GQDGLAGPK-OH; N-terminus and C-terminus assumed)
MMP-9 Concentration (MMP-9; PBMC + 0.01 uM, no LPS, Mean): 6947.7 pg/mL | MMP-9 conc/live cell (MMP-9; PBMC + 0.01 uM, no LPS, Mean): 1395.6 pg/10^5 | MMP-9 Concentration (MMP-9; [1]): 6464.0 pg/mL and 7431.3 pg/mL | MMP-9 conc/live cell (MMP-9; [1]): 1243.1 pg/10^5 and 1548.2 pg/10^5 | MMP-9 Concentration (MMP-9; PBMC + 0.1 uM, no LPS, Mean): 7041.0 pg/mL | MMP-9 conc/live cell (MMP-9; PBMC + 0.1 uM, no LPS, Mean): 1365.4 pg/10^5 | MMP-9 Concentration (MMP-9; [2]): 5521.9 pg/mL and 8560.2 pg/mL | MMP-9 conc/live cell (MMP-9; [2]): 1255.0 pg/10^5 and 1475.9 pg/10^5 | MMP-9 Concentration (MMP-9; PBMC + 1 uM, no LPS, Mean): 7016.7 pg/mL | MMP-9 conc/live cell (MMP-9; PBMC + 1 uM, no LPS, Mean): 1275.8 pg/10^5 | MMP-9 Concentration (MMP-9; [3]): 6666.8 pg/mL and 7366.6 pg/mL | MMP-9 conc/live cell (MMP-9; [3]): 1212.2 pg/10^5 and 1339.4 pg/10^5 | MMP-9 Concentration (MMP-9; PBMC + 10 uM, no LPS, Mean): 10460.4 pg/mL | MMP-9 conc/live cell (MMP-9; PBMC + 10 uM, no LPS, Mean): 1662.8 pg/10^5 | MMP-9 Concentration (MMP-9; [4]): 13551.9 pg/mL and 7369.0 pg/mL | MMP-9 conc/live cell (MMP-9; [4]): 2117.5 pg/10^5 and 1208.0 pg/10^5 | MMP-9 Concentration (MMP-9; PBMC + 100 uM, no LPS, Mean): 5317.6 pg/mL | MMP-9 conc/live cell (MMP-9; PBMC + 100 uM, no LPS, Mean): 799.8 pg/10^5 | MMP-9 Concentration (MMP-9; [5]): 6000.1 pg/mL and 4635.0 pg/mL | MMP-9 conc/live cell (MMP-9; [5]): 937.5 pg/10^5 and 662.1 pg/10^5 | MMP-9 Concentration (MMP-9; [6]): 182.3 pg/mL | MMP-9 conc/live cell (MMP-9; [6]): 28.3 pg/10^5 | MMP-9 Concentration (MMP-9; [7]): 152.0 pg/mL and 155.2 pg/mL and 239.8 pg/mL | MMP-9 conc/live cell (MMP-9; [7]): 26.7 pg/10^5 and 21.9 pg/10^5 and 36.3 pg/10^5 | MMP-9 Concentration (MMP-9; [8]): 150.9 pg/mL | MMP-9 conc/live cell (MMP-9; [8]): 24.5 pg/10^5 | MMP-9 Concentration (MMP-9; [9]): 161.5 pg/mL and 155.2 pg/mL and 135.8 pg/mL | MMP-9 conc/live cell (MMP-9; [9]): 25.2 pg/10^5 and 25.9 pg/10^5 and 22.3 pg/10^5 | MMP-9 Concentration (MMP-9; [10]): 114.6 pg/mL | MMP-9 conc/live cell (MMP-9; [10]): 19.7 pg/10^5 | MMP-9 Concentration (MMP-9; [11]): 102.0 pg/mL and 119.2 pg/mL and 122.6 pg/mL | MMP-9 conc/live cell (MMP-9; [11]): 16.5 pg/10^5 and 22.9 pg/10^5 and 19.8 pg/10^5 | MMP-9 Concentration (MMP-9; [12]): 167.7 pg/mL | MMP-9 conc/live cell (MMP-9; [12]): 25.8 pg/10^5 | MMP-9 Concentration (MMP-9; [13]): 155.2 pg/mL and 161.5 pg/mL and 186.3 pg/mL | MMP-9 conc/live cell (MMP-9; [13]): 24.6 pg/10^5 and 22.8 pg/10^5 and 30.1 pg/10^5 | MMP-9 Concentration (MMP-9; [14]): 157.2 pg/mL | MMP-9 conc/live cell (MMP-9; [14]): 24.0 pg/10^5 | MMP-9 Concentration (MMP-9; [15]): 161.5 pg/mL and 167.8 pg/mL and 142.4 pg/mL | MMP-9 conc/live cell (MMP-9; [15]): 26.9 pg/10^5 and 26.2 pg/10^5 and 18.7 pg/10^5 | MMP-9 Concentration (MMP-9; [16]): 96.1 pg/mL | MMP-9 conc/live cell (MMP-9; [16]): 16.5 pg/10^5 | MMP-9 Concentration (MMP-9; [17]): 98.5 pg/mL and 102.0 pg/mL and 87.7 pg/mL | MMP-9 conc/live cell (MMP-9; [17]): 15.6 pg/10^5 and 16.5 pg/10^5 and 17.5 pg/10^5 | Concentration (IL-1 beta/IL-1F2; [18]): 7614.6 pg/mL | MFI (IL-1 beta/IL-1F2; [18]): 1976.7 | conc/live cell (IL-1 beta/IL-1F2; [18]): 1188.6 pg/10^5 | Concentration (IL-1 beta/IL-1F2; [19]): 7907.5 pg/mL and 7935.5 pg/mL and 7000.7 pg/mL | MFI (IL-1 beta/IL-1F2; [19]): 2055.5 and 2063.0 and 1811.5 | conc/live cell (IL-1 beta/IL-1F2; [19]): 1387.3 pg/10^5 and 1117.7 pg/10^5 and 1060.7 pg/10^5 | Concentration (IL-1 beta/IL-1F2; [20]): 8390.1 pg/mL | MFI (IL-1 beta/IL-1F2; [20]): 2184.3 | conc/live cell (IL-1 beta/IL-1F2; [20]): 1361.7 pg/10^5
